Assay results from article PMC3914206.

What was measured:
Format in all cases: binding
[1] = target: T1, panel of 442 kinases (Homo sapiens, UniProt Q02763); conditions: kinase TIE2; compound concentration 10 µM
T1 construct: purchased KINOMEscan
Text: (§1) We assessed the selectivity of members of this scaffold using the KINOMEscan methodology across a near comprehensive panel of 442 kinases [[18,27]].

[2] = target: T2, panel of 442 kinases (Homo sapiens, UniProt Q86V86); conditions: Compound Concentration 10 µM
T2 construct: purchased KINOMEscan
Text: as §1

[3] = target: T3, panel of 442 kinases (Homo sapiens, UniProt P06241); conditions: Compound Concentration 10 µM
T3 construct: purchased KINOMEscan
T3 sequence (P06241 whole entry): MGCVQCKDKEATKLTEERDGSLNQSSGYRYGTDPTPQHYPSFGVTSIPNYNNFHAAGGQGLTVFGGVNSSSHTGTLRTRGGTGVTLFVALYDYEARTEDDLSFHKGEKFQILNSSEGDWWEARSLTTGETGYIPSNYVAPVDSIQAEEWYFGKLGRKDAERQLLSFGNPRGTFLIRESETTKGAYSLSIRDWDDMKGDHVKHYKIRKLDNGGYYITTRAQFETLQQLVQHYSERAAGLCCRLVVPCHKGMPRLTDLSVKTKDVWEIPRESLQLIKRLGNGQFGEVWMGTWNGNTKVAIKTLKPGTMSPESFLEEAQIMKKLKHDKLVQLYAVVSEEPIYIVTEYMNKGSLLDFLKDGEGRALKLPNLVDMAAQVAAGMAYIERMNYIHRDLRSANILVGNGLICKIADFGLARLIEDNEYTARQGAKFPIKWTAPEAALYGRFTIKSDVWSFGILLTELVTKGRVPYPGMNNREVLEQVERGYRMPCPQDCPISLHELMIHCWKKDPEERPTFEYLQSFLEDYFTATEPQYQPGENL
Text: as §1

[4] = target: T4, panel of 442 kinases (Homo sapiens, UniProt P15056); conditions: Compound Concentration 10 µM
T4 construct: purchased KINOMEscan
T4 sequence (P15056 whole entry): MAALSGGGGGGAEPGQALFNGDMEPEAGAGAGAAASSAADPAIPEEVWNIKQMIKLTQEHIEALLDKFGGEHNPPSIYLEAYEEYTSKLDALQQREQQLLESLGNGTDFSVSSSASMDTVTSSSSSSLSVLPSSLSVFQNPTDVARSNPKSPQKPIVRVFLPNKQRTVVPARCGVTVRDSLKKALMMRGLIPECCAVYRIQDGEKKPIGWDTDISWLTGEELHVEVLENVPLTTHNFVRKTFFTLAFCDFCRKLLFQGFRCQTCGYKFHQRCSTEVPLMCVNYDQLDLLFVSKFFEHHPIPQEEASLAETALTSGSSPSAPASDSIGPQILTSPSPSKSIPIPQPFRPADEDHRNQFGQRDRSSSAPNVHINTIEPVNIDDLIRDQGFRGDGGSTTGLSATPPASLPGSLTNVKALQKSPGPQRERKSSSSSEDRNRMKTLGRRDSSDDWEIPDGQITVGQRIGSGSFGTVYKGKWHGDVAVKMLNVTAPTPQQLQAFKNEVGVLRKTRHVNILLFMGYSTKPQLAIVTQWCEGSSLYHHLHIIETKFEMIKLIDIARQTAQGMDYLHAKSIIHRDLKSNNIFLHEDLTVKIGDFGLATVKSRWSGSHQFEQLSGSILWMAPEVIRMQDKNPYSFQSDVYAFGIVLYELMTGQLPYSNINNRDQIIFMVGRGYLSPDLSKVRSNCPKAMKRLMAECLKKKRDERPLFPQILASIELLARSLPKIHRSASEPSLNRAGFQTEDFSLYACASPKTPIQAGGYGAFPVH
Text: as §1

T1 sequence (Q02763 23-1124): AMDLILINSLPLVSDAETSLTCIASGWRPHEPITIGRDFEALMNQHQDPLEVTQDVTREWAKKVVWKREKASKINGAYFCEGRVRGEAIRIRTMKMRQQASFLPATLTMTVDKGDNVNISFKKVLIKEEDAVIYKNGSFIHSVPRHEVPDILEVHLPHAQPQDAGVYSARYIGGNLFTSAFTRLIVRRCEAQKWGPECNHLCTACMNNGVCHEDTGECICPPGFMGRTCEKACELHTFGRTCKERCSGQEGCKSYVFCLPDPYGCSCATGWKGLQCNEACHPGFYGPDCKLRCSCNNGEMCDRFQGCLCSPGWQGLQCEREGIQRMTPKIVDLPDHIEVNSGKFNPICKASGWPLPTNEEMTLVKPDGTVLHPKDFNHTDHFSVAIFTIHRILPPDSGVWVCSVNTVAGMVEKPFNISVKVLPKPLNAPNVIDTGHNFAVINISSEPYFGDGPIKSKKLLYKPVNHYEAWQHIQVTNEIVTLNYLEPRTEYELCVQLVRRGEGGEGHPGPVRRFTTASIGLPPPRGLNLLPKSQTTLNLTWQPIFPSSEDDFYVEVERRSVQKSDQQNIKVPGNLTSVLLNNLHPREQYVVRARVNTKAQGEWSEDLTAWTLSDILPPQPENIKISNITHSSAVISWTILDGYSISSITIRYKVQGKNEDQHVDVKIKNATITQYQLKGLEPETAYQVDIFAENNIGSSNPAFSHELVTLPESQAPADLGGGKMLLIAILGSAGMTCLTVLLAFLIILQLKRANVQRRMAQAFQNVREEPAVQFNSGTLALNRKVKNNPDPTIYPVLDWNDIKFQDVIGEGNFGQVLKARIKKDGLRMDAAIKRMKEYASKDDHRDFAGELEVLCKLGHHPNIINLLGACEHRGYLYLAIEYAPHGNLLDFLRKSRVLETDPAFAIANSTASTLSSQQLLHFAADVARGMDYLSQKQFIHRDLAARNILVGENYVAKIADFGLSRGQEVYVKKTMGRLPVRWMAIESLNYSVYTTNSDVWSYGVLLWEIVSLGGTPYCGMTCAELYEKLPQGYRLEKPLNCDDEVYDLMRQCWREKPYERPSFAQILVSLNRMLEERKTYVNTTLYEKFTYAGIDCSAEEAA

Structure (SMILES): COc1cc(C(=O)N2CCC(N3CCN(C)CC3)CC2)ccc1Nc1ncc2c(n1)N(C1CCCC1)c1ccccc1C(=O)N2C [Compound 25, 11-cyclopentyl-2-((2-methoxy-4-(4-(4-methylpiperazin-1-yl)piperidine-1-carbonyl)phenyl)amino)-5-methyl-5H-benzo[e]pyrimido[5,4-b][1,4]diazepin-6(11H)-one]
- % Ctrl, TIE2 [1]: 100 % Ctrl
- KINOMEscan: PIM3 [2]: 78
- KINOMEscan: FYN [3]: 86
- KINOMEscan: BRAF [4]: 100

Structure (SMILES): CCOc1cc(C(=O)N2CCC(N3CCN(C)CC3)CC2)ccc1Nc1ncc2c(n1)N(C1CCCC1)c1ccccc1C(=O)N2C [Compound 26]
- % Ctrl, TIE2 [1]: 100 % Ctrl
- KINOMEscan: PIM3 [2]: 100
- KINOMEscan: FYN [3]: 78
- KINOMEscan: BRAF [4]: 90

Structure (SMILES): COc1cc(C(=O)N2CCC(N3CCN(C)CC3)CC2)ccc1Nc1ncc2c(n1)N1CCc3cccc(c31)C(=O)N2C [Compound 24]
- % Ctrl, TIE2 [1]: 79 % Ctrl
- KINOMEscan: PIM3 [2]: 67
- KINOMEscan: FYN [3]: 82

Structure (SMILES): COc1cc(C(=O)N2CCC(N3CCN(C)CC3)CC2)ccc1Nc1ncc2c(n1)N(C)c1ccccc1C(=O)N2C [15 (LRRK2-IN-1)]
- % Ctrl, TIE2 [1]: 100 % Ctrl
- KINOMEscan: PIM3 [2]: 88
- KINOMEscan: FYN [3]: 100
- KINOMEscan: BRAF [4]: 81
